# Laboratory results: US6462060B2, “Heterocyclic-hydroxyimino-fluorene nuclei compounds and pharmaceutical compositions for inhibiting protein kinases, and methods for their use” (Agouron Pharmaceuticals, Inc., priority 2000, dated 2002)
# How the values were obtained:
# [1] = target: T1, CDK4/Cyclin D3 complex (Homo sapiens, UniProt P11802); assay: CDK4/Cyclin D assay (32P incorporation into Rb fragment); type: biochemical; details: apparent Ki; 50 nM CDK4/Cyclin D3 complex, 25 μM ATP
# T1 construct: made in house; host or cells: insect cells co-infected with baculovirus expression vectors
# Experimental: CDK4/Cyclin D Construct for Assay: A complex of human CDK4 and cyclin D3, or a complex of cyclin D1 and a fusion protein of human CDK4 and glutathione-S-transferase (GST-CDK4), was purified using traditional biochemical chromatographic techniques from insect cells that had been co-infected with the corresponding baculovirus expression vectors.
# (§1) CDK2/Cyclin A and CDK4/Cyclin D Assays
# Cyclin-dependent kinase activity was measured by quantifying the enzyme-catalyzed, time-dependent incorporation of radioactive phosphate from [^32P]ATP into a recombinant fragment of the retinoblastoma protein. Unless noted otherwise, assays were performed in 96-well plates in a total volume of 50 μL, in the presence of 10 mM HEPES (N-[2-hydroxyethyl]piperazine-N′-[2-ethanesulfonic acid]) (pH 7.4), 10 mM MgCl2, 25 μM adenosine triphosphate (ATP), 1 mg/mL ovalbumin, 5 μg/mL leupeptin, 1 mM dithiothreitol, 10 mM β-glycerophosphate, 0.1 mM sodium vanadate, 1 mM sodium fluoride, 2.5 mM ethylene glycol-bis(β-aminoethyl ether)-N,N,N′N′-tetraacetic acid (EGTA), 2% (v/v) dimethylsulfoxide, and 0.03-0.2 μCi [^32P]ATP. The substrate (0.3-0.5 μg) was purified recombinant retinoblastoma protein fragment (Rb) (residues 386-928 of the native retinoblastoma protein; 62.3 kDa, containing the majority of the phosphorylation sites found in the native 1 06kDa protein, as well as a tag of six histidine residues for ease of purification). Reactions were initiated with CDK2 (150 nM CDK2/Cyclin A complex) or CDK4 (50 nM CDK4/Cyclin D3 complex), incubated at 30° C., and terminated after 20 minutes by the addition of ethylenediaminetetraacetic acid (EDTA) to 250 mM. The phosphorylated substrate was then captured on a nitrocellulose membrane using a 96-well filtration manifold, and unincorporated radioactivity was removed by repeated washing with 0.85% phosphoric acid. Radioactivity was quantified by exposing the dried nitrocellulose membranes to a phosphorimager. Apparent Ki values were measured by assaying enzyme activity in the presence of different compound concentrations and subtracting the background radioactivity measured in the absence of enzyme. The kinetic parameters (kcat, Km for ATP) were measured for each enzyme under the usual assay conditions by determining the dependence of initial rates on ATP concentration. The data were fit to an equation for competitive inhibition using Kaleidagraph (Synergy Software), or were fit to an equation for competitive tight-binding inhibition using the software KineTic (BioKin, Ltd.). The specific activity of CDK4 was the same whether complexed to full-length cyclin D3 or the truncated Cyclin D3 construct; both complexes also yielded very similar Ki values for selected inhibitors.
# [2] = target: T2, phosphorylated VEGF-R2Δ50 (FLVK-P) (Homo sapiens, UniProt P35968, DEL940-989/E990V); assay: VEGF-R2 coupled spectrophotometric (FLVK-P) assay; type: biochemical; details: phosphorylated VEGF-R2Δ50, 1 mM ATP
# T2 construct: VEGF-R2Δ50 contains residues 806-939 and 990-1171; made in house; host or cells: baculovirus/insect cell system
# From the text: VEGF-R2 Construct for Assay: A construct (VEGF-R2Δ50) of the cytosolic domain of human vascular endothelial growth factor receptor 2 (VEGF-R2) lacking the 50 central residues of the 68 residues of the kinase insert domain was expressed in a baculovirus/insect cell system. Of the 1356 residues of full-length VEGF-R2, VEGF-R2Δ50 contains residues 806-939 and 990-1171, and also one point mutation (E990V) within the kinase insert domain relative to wild-type VEGF-R2. See McTigue et al., Structure, 7, 319-330 (1999); U.S. patent application Ser. No. 09/390,326, filed Sep. 7, 1999. Autophosphorylation of the purified construct was performed by incubation of the enzyme at a concentration of 4 μM in the presence of 3 mM ATP and 40 mM MgCl2 in 100 mM Hepes, pH 7.5, containing 5% glycerol and 5 mM DTT, at 4° C. for 2 h. […] See Parast et al., Biochemistry, 37, 16788-16801 (1998).
# Coupled Spectrophotometric (FLVK-P) Assay
# The production of ADP from ATP that accompanies phosphoryl transfer was coupled to oxidation of NADH using phosphoenolpyruvate (PEP) and a system having pyruvate kinase (PK) and lactic dehydrogenase (LDH). The oxidation of NADH was monitored by following the decrease of absorbance at 340 nm (e340=6.22 cm^−1 mM^−1) using a Beckman DU 650 spectrophotometer. Assay conditions for phosphorylated VEGF-R2Δ50 (indicated as FLVK-P in the tables below) were the following: 1 mM PEP; 250 μM NADH; 50 units of LDH/mL; 20 units of PK/mL; 5 mM DTT; […]; 1 mM ATP; and 25 mM MgCl2 in 200 mM Hepes, pH 7.5. Assay conditions for unphosphorylated VEGF-R2Δ50 (indicated as FLVK in the tables) were the following: 1 mM PEP; 250 ,M NADH; 50 units of LDH/mL; 20 units of PK/mL; 5 mM DTT; 20 mM poly(E4Y1); 3 mM ATP; and 60 mM MgCl2 and 2 mM MnCl2 in 200 mM Hepes, pH 7.5. Assays were initiated with 5 to 40 nM of enzyme. Ki values were determined by measuring enzyme activity in the presence of varying concentrations of test compounds. The data were analyzed using Enzyme Kinetic and Kaleidagraph software.
# [3] = target: T3, CHK-1 KH289 (Homo sapiens, UniProt O14757); assay: CHK-1 assay (coupled spectrophotometric, Syntide-2); type: biochemical; details: for Ki: 10 nM CHK-1 KH289, 0.15 mM ATP
# T3 construct: CHK-1 KH289 contains residues 1-289 of human CHK-1; 6xHis (C); made in house; host or cells: baculovirus/insect cell system
# T3 sequence (O14757 1-289): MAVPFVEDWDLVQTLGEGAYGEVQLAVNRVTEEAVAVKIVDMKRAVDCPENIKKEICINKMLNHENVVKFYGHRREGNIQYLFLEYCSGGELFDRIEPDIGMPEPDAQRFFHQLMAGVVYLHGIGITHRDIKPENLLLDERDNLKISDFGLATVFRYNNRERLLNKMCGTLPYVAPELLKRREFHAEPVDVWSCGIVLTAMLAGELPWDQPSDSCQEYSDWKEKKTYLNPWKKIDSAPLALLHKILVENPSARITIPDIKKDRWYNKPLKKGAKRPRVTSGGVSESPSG
# From the text: CHK-1 KH289 contains residues 1-289 of human CHK-1 including the kinase domain. It contains 6 histidine residues (6×His-tag) at the C-terminus of residue 289. The protein was expressed in a baculovirus/insect cell system and purified by conventional chromatographic techniques.
# (§2) The production of ADP from ATP that accompanies phosphoryl transfer to the synthetic substrate peptide Syntide-2 ([…]) was coupled to oxidation of NADH using phosphoenolpyruvate (PEP) through the actions of pyruvate kinase (PK) and lactic dehydrogenase (LDH). The oxidation of NADH was monitored by following the decrease of absorbance at 340 nm (ε340=6.22 cm^−1 mM^−1) using a HP8452 spectrophotometer. Typical reaction solutions contained: 4 mM PEP; 0.15 mM NADH; 28 units of LDH/ml; 16 units of PK/ml; 3 mM DTT; 0.125 mM Syntide2Σ; 0.15 mM ATP; 25 mM MgCl2 in 50 mM TRIS, pH 7.5; and 400 mM NaCl. Assays were initiated with 10 nM of CHK-1 KH289. Ki values were determined by measuring initial enzyme activity in the presence of varying concentrations of test compounds. The data were analyzed using Enzyme Kinetic and Kaleidagraph software.
# [4] = target: T4, CDS1/CHK-2 (CDS1 CE4) (Homo sapiens, UniProt O96017); assay: CDS1 assay (conditions identical to the CHK-1 assay); type: biochemical; details: 10 nM CDS1
# T4 construct: CDS1 CE4 contains residues 209-502 including the kinase domain; 6xHis leader with thrombin site; first M absent from the expressed protein) (N); made in house; host or cells: E. coli
# From the text: CDS1 Construct for Assay: CDS1 CE4 contains residues 209-502 including the kinase domain of human CDS1/CHK-2 (GenBank accession number AFO86904, Matsuoka et al., Science, 282, 1893-97 (1998)). It contains the amino acid sequence: […] at the N-terminus of residue 209. (The first M is not present in the expressed protein due to post-translational processing of the N-terminus.) The protein was expressed in E. coli and purified by conventional chromatographic techniques.
# as §2
# The CDS 1 assay was prepared under identical conditions to that of the CHK-1 assay, except with the use of 10 nM of CDS1.
# [5] = target: CDK2/Cyclin A complex (Homo sapiens, UniProt P24941); assay: CDK2/Cyclin A assay (32P incorporation into Rb fragment); type: biochemical; details: apparent Ki; 150 nM CDK2/Cyclin A complex, 25 μM ATP
# From the text: CDK2/Cyclin A Construct for Assay: CDK2 was purified using published methodology (Rosenblatt et al., J. Mol. Biol., 230, 1317-1319 (1993)) from insect cells that had been infected with a baculovirus expression vector. Cyclin A was purified from E. coli cells expressing full-length recombinant cyclin A, and a truncated cyclin A construct was generated by limited proteolysis and purified as described previously (Jeffrey et al., Nature, 376, 313-320 (1995)).
# as §1
# Cyclin-dependent kinase activity was measured by quantifying the enzyme-catalyzed, time-dependent incorporation of radioactive phosphate from [^32P]ATP into a recombinant fragment of the retinoblastoma protein. […] The phosphorylated substrate was then captured on a nitrocellulose membrane using a 96-well filtration manifold, and unincorporated radioactivity was removed by repeated washing with 0.85% phosphoric acid. Radioactivity was quantified by exposing the dried nitrocellulose membranes to a phosphorimager. Apparent Ki values were measured by assaying enzyme activity in the presence of different compound concentrations and subtracting the background radioactivity measured in the absence of enzyme. The kinetic parameters (kcat, Km for ATP) were measured for each enzyme under the usual assay conditions by determining the dependence of initial rates on ATP concentration. […]
# [6] = test system: HCT 116 cells; assay: Inhibition of cell growth, MTT assay, HCT 116; type: cell-based; details: Homo sapiens, HCT-116, 144 h, four to six days incubation
# Experimental: (§3) Inhibition of Cell Growth: Assessment of Anti-proliferation with U2-OS, SAOS2, HCT116 Cancer Cell Lines
# (§4) Inhibition of cell growth was measured using the tetrazolium salt assay, which is based on the ability of viable cells to reduce 3-(4,5-dimethylthiazol-2-yl)-2,5-[2H]-diphenyltetrazolium bromide (MTT) to formazan (Mossman, J. Immunological Methods, 65, 55-58 (1983)). The water-insoluble purple formazan product was then detected spectrophotometrically. The HCT 116, U2-OS, and SAOS 2 cell lines were each grown in 96-well plates, respectively. Cells were plated in the appropriate medium at a volume of 135 μL/well in McCoy's 5A Medium. Plates were incubated for 4 h before addition of inhibitor compounds.
# (§5) Different concentrations of inhibitor compounds were added in 0.5% (v/v) dimethylsulfoxide (μL/well), and cells were incubated at 37° C. (5% CO2) for four to six days (depending on cell type). At the end of the incubation, MTT was added to a final concentration of 0.2 mg/mL, and cells were incubated for 4 h more at 37° C. After centrifugation of the plates and removal of medium, the absorbance of the formazan (solubilized in dimethylsulfoxide) was measured at 540 nm. The concentration of inhibitor compound causing 50% inhibition of growth was determined from the linear portion of a semi-log plot of inhibitor concentration versus percentage inhibition. […]
# [7] = test system: U2-OS cells; assay: Inhibition of cell growth, MTT assay, U2-OS; type: cell-based; details: Homo sapiens, U2OS, 144 h, four to six days incubation
# Experimental: as §3, §4, §5
# [8] = test system: SAOS 2 cells; assay: Inhibition of cell growth, MTT assay, SAOS 2; type: cell-based; details: Homo sapiens, SAOS-2, 144 h, four to six days incubation, read-out: SAOS2 IC50
# Experimental: as §3, §4, §5
# T2 sequence (P35968 with tags, fused parts or gaps DEL940-989/E990V limits assumed): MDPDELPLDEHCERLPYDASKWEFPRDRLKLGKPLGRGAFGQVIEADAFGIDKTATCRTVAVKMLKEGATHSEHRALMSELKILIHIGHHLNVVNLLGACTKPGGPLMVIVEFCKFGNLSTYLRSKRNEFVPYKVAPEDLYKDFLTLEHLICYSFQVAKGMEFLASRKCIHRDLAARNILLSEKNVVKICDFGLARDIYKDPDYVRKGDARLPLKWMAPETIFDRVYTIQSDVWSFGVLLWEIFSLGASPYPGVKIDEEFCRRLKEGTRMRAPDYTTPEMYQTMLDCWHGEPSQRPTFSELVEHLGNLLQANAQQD
# T4 sequence (O96017 209-502): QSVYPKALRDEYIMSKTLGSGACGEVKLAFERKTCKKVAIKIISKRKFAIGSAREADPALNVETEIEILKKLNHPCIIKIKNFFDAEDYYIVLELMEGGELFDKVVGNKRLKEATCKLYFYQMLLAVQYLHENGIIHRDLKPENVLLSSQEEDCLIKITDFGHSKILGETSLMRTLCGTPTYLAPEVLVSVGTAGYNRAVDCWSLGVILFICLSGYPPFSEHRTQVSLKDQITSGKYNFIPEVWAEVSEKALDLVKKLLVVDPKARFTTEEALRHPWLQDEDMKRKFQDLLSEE
# T1 sequence (P11802 whole entry, the tested form may be a part): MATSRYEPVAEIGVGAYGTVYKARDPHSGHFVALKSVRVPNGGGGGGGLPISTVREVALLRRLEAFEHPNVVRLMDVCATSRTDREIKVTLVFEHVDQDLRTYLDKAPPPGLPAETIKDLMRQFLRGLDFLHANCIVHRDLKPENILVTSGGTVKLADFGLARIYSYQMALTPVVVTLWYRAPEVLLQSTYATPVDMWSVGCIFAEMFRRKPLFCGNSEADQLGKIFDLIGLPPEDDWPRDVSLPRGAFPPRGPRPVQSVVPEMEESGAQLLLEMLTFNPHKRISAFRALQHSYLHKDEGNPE
# T1 sequence (P30281 whole entry partner, the tested form may be a part): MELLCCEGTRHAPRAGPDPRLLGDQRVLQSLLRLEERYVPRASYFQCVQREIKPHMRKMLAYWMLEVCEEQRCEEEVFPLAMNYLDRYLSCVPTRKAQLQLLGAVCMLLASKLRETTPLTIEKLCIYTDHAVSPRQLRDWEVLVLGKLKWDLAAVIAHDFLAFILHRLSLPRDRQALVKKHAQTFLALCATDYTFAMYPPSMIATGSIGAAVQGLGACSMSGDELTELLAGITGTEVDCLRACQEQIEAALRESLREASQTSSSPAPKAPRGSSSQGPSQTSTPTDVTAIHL
Structure (SMILES),Ki [1] [nM],Ki [2] [nM],Ki [3] [nM],melting point [°C],"inhibition at 10 µM ([3]; at 10 μM, read-out: CHK-1 KH289 percent inhibition) [%]",Ki [4] [nM],"inhibition at 25 µM ([3]; at 25 μM, read-out: CHK-1 KH289 percent inhibition) [%]",Ki [5] [nM],IC50 [6] [nM],IC50 [7] [nM],IC50 [8] [nM]
"ON=C1c2ccccc2-c2cc3[nH]cnc3cc21 (mixture of isomers) [Example A, 9(E/Z)-Hydroxyimino-3H-fluoreno[2,3-d]imidazole]",2360,1330,3600,,,,,,,,
"Nc1nc2cc3c(cc2[nH]1)-c1ccccc1C3=NO (mixture of isomers) [Example B, 2-Amino-9(E/Z)-hydroxyimino-3H-fluoreno[2,3-d]imidazole]",790,1900,5800,240 to 242,,,,,,,
"Nc1cc2c(cc1[N+](=O)[O-])-c1ccccc1C2=NO [Comparison Ex. 2(a), reference compound]",1790,15500,,,14,,,,,,
"O/N=C1/c2ccccc2-c2nc3nonc3nc21 [Comparison Ex. 1, reference compound]",2100,15900,26600,,,15000,,,,,
"Nc1cc2c(cc1N)-c1ccccc1C2=NO [Comparison Ex. 2(b), reference compound]",3210,923,8100,,,604,,,,,
"Nc1cc2c(cc1[N+](=O)[O-])-c1cc([N+](=O)[O-])c(N)cc1C2=NO [Comparison Ex. 2(c), reference compound]",3620,,,,,37000,33,,,,
"ON=C1c2cc(I)ccc2-c2cc3[nH]nnc3cc21 (mixture of isomers) [Example D, 9(E/Z)-Hydroxyimino-7-iodo-3H-fluoreno[2,3-d]-1,2,3-triazole]",1200,,166,,,21,,,,,
"ON=C1c2ccccc2-c2cc3[nH]nnc3cc21 (mixture of isomers) [Example C, 9(E/Z)-Hydroxyimino-3H-fluoreno[2,3-d]-1,2,3-triazole]",213,1470,571,,,,,680,10400,18000,11000
